Assay results reported in patent US20250367308A1, “LIGAND-DRUG CONJUGATE OF CAMPTOTHECIN ANALOGS, INTERMEDIATES, PREPARATION METHOD THEREFOR, PHARMACEUTICAL COMPOSITION AND APPLICATION THEREOF” (SHANGHAI MICURX PHARMACEUTICAL CO.,LTD., priority 2022, published 2025).

Tested on: Human lung adenocarcinoma cell line A549
Assay: In vitro cytotoxicity test of camptothecin payloads (CellTiter-Glo)
Type: cell-based
Settings: for IC50: Homo sapiens, A549, 72 h, read-out: A549 Cytotoxicity IC50 (nM)
Protocol: Human lung adenocarcinoma cell line A549 was used to evaluate the cytotoxicity of small molecule fragment of the present invention. A549 cells were seeded to a 96-well plate at 2000 cells per well.

| SMILES | IC50 [nM] | relative A549 cytotoxic potency in words (comparison between analogs of Table 1) | relative A549 cytotoxic potency in words (human, 3 days) |
| --- | --- | --- | --- |
| CC[C@@]1(O)C(=O)OCc2c1cc1n(c2=O)Cc2c-1nc1cc(F)c(OC)cc1c2CN1CCC([C@@H](C)O)CC1 [Example 41, (S)-4-ethyl-8-fluoro-4-hydroxy-11-((4-((R)-1-hydroxyethyl)piperidin-1-yl)methyl)-9-methoxy-1,12-dihydro-14H-pyrano[3′,4′:6,7] indolizino[1,2-b]quinoline-3,14(4H)-dione] | 31 |  |  |
| CC[C@@]1(O)C(=O)OCc2c1cc1n(c2=O)Cc2c-1nc1cc(F)c(C)cc1c2CN1CCC(C(O)C(F)(F)F)CC1 (stereo partly drawn) [Example 29, (4S)-4-ethyl-8-fluoro-4-hydroxy-9-methyl-11-((4-(2,2,2-trifluoro-1-hydroxyethyl)piperidin-1-yl)methyl)-1H-pyrano[3′,4′:6,7] indolizino[1,2-b]quinoline-3,14(4H,12H)-dione] | 29.8 |  |  |
| CC[C@@]1(O)C(=O)OCc2c1cc1n(c2=O)Cc2c-1nc1cc(F)c(C)cc1c2CN1CC[C@@H](O)C1=O [Example 1, (S)-4-ethyl-8-fluoro-4-hydroxy-11-(((R)-3-hydroxy-2-oxopyrrolidin-1-yl)methyl)-9-methyl-1H-pyrano[3′,4′:6,7] indolizino[1,2-b]quinoline-3,14(4H,12H)-dione] | 515 | much less potent |  |
| CC[C@@]1(O)C(=O)OCc2c1cc1n(c2=O)Cc2c-1nc1cc3c(cc1c2CN1C[C@@H]2CCC[C@@H]2[C@H]1CO)OCCO3 [Example 45] | 53 |  |  |
| CC[C@@]1(O)C(=O)OCc2c1cc1n(c2=O)Cc2c-1nc1cc3c(cc1c2CN1CCC([C@@H](C)O)CC1)OCCO3 [Example 36] | 38.4 |  |  |
| CC[C@@]1(O)C(=O)OCc2c1cc1n(c2=O)Cc2c-1nc1cc(F)c(C)cc1c2CN1CCC(CO)CC1 [Example 10, (S)-4-ethyl-8-fluoro-4-hydroxy-11-((4-(hydroxymethyl)piperidin-1-yl)methyl)-9-methyl-1H-pyrano[3′,4′:6,7] indolizino[1,2-b]quinoline-3,14(4H,12H)-dione] | 67 |  | less potent than Example 17 |
| CC[C@@]1(O)C(=O)OCc2c1cc1n(c2=O)Cc2c-1nc1cc(F)c(C)cc1c2CN1CCCC(CO)C1 (stereo partly drawn) [Example 12, (4S)-4-ethyl-8-fluoro-4-hydroxy-11-((3-(hydroxymethyl)piperidin-1-yl)methyl)-9-methyl-1H-pyrano[3′,4′:6,7] indolizino[1,2-b]quinoline-3,14(4H,12H)-dione] | 90 |  | less potent than Example 17 |
| CC[C@@]1(O)C(=O)OCc2c1cc1n(c2=O)Cc2c-1nc1cc(F)c(C)cc1c2CN1CCC2(CC1)CC(O)C2 [Example 31, (S)-4-ethyl-8-fluoro-4-hydroxy-11-((2-hydroxy-7-azaspiro[3.5]nonan-7-yl)methyl)-9-methyl-1H-pyrano[3′,4′:6,7] indolizino[1,2-b]quinoline-3,14(4H,12H)-dione] | 12.5 |  |  |
| CC[C@@]1(O)C(=O)OCc2c1cc1n(c2=O)Cc2c-1nc1cc(F)c(C)cc1c2CN1C[C@H]2CC[C@@H](C1)C2O (stereo partly drawn) [Example 33, (4S)-4-ethyl-8-fluoro-4-hydroxy-11-(((1R,5S)-8-hydroxy-3-azabicyclo[3.2.1]octan-3-yl)methyl)-9-methyl-1H-pyrano[3′,4′:6,7] indolizino[1,2-b]quinoline-3,14(4H,12H)-dione] | 12.9 |  |  |
| CC[C@@]1(O)C(=O)OCc2c1cc1n(c2=O)Cc2c-1nc1cc(F)c(C)cc1c2CN1CCCC1CO (stereo partly drawn) [Example 5, (4S)-4-ethyl-8-fluoro-4-hydroxy-11-((2-(hydroxymethyl)pyrrolidin-1-yl)methyl)-9-methyl-1H-pyrano[3′,4′:6,7] indolizino[1,2-b]quinoline-3,14(4H,12H)-dione] | 65 |  |  |
| CC[C@@]1(O)C(=O)OCc2c1cc1n(c2=O)Cc2c-1nc1cc(F)c(C)cc1c2CN1CCC[C@@H](O)C1 [Example 18, (S)-4-ethyl-8-fluoro-4-hydroxy-11-(((R)-3-hydroxypiperidin-1-yl)methyl)-9-methyl-1H-pyrano[3′,4′:6,7] indolizino[1,2-b]quinoline-3,14(4H,12H)-dione] | 19.7 |  |  |
